Reference: US10597388B2, “Pyridazinone herbicides” (FMC CORPORATION, priority 2014, dated 2020)

Columns and labels:
Assay in all cases: Test E greenhouse herbicide test, pre- and postemergence
Format in all cases: in vivo
[1] = test system: nightshade (eastern black nightshade, Solanum ptycanthum); conditions: Preemergence
How it was run: (§1)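 For each species, sown seed in silt loam and young plants (2 to 18 cm) in a peat/vermiculite medium were each treated with compound dissolved in surfactant-containing, non-phytotoxic solvent. After 14 to 21 d under greenhouse conditions, effects were visually rated, 100 meaning complete control.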

[2] = test system: sandbur (southem sandbur, Cenchrus echinatus)
How it was run: as §1

[3] = test system: horseweed (Conyza canadensis)
How it was run: as §1

[4] = test system: foxtail, giant (giant foxtail, Setaria faberii); conditions: Preemergence
How it was run: as §1

[5] = test system: arrowleaf sida (Sida rhombifolia)
How it was run: as §1

[6] = test system: Italian ryegrass (Lolium multiflorum)
How it was run: as §1

[7] = test system: beggarticks (hairy beggarticks, Bidens pilosa)
How it was run: as §1

[8] = test system: field bindweed (Convolvulus arvensis)
How it was run: as §1

[9] = test system: foxtail, green (green foxtail, Setaria viridis); conditions: Preemergence
How it was run: as §1

[10] = test system: lambsquarters (Chenopodium album); conditions: Preemergence
How it was run: as §1

[11] = test system: crabgrass, large (large crabgrass, Digitaria sanguinalis); conditions: Preemergence
How it was run: as §1

corn (Zea mays) = test system: corn (Zea mays)
How it was run: as §1

[12] = test system: momingglory (Ipomoea coccinea); conditions: Preemergence
How it was run: as §1

[13] = test system: ragweed (common ragweed, Ambrosia elatior)
How it was run: as §1

[14] = test system: panicum, fall (fall panicum, Panicum dichotomiflorum)
How it was run: as §1

[15] = test system: velvetleaf (Abutilon theophrasti); conditions: Preemergence
How it was run: as §1

[16] = 62 g ai/ha, scale 0 to 100 (0 no effect, 100 complete control)
[17] = 125 g ai/ha, scale 0 to 100 (0 no effect, 100 complete control)
[18] = 16 g ai/ha, scale 0 to 100, 0 no effect, 100 complete control
[19] = 31 g ai/ha, scale 0 to 100, 0 no effect, 100 complete control
[20] = 62 g ai/ha, Preemergence, scale 0 to 100 (0 no effect, 100 complete control)
[21] = 125 g ai/ha, Postemergence, scale 0 to 100 (0 no effect, 100 complete control)
[22] = 125 g ai/ha, Preemergence, scale 0 to 100 (0 no effect, 100 complete control)
[23] = Postemergence, 16 g ai/ha, visual, scale 0 no effect to 100 complete control
[24] = Postemergence, 31 g ai/ha, visual, scale 0 no effect to 100 complete control
[25] = Preemergence, 16 g ai/ha, scale 0 to 100, 0 no effect, 100 complete control
[26] = Preemergence, 31 g ai/ha, scale 0 to 100, 0 no effect, 100 complete control
[27] = 62 g ai/ha, Postemergence, scale 0 to 100 (0 no effect, 100 complete control)

CCCC(=O)Oc1c(C)nn(C)c(=O)c1-c1c(C)sc2ccc(C)cc12 [Compound 105]
40: Plant response rating, Sandbur [2, 24] | Plant response rating, Arrowleaf Sida [5, 20] | Plant response rating, Foxtail, Green [9, 17] | Plant response rating, Morningglory [12, 18] | Plant response rating, Panicum, Fall [14, 23]
5: Plant response rating, Corn (corn (Zea mays); [24])
98: Plant response rating, Nightshade [1, 16] | Plant response rating, Nightshade [1, 17] | Plant response rating, Ragweed [13, 22] | Plant response rating, Panicum, Fall [14, 22]
85: Plant response rating, Horseweed [3, 27] | Plant response rating, Horseweed [3, 24]
30: Plant response rating, Sandbur [2, 23] | Plant response rating, Ryegrass, Italian [6, 23] | Plant response rating, Foxtail, Green [9, 16]
0: Plant response rating, Nightshade [1, 18] | Plant response rating, Sandbur [2, 25] | Plant response rating, Horseweed [3, 25] | Plant response rating, Horseweed [3, 26] | Plant response rating, Foxtail, Giant [4, 18] | Plant response rating, Foxtail, Giant [4, 19] | Plant response rating, Arrowleaf Sida [5, 25] | Plant response rating, Arrowleaf Sida [5, 26] | Plant response rating, Foxtail, Green [9, 18] | Plant response rating, Foxtail, Green [9, 19] | Plant response rating, Lambsquarters [10, 18] | Plant response rating, Lambsquarters [10, 19] | Plant response rating, Crabgrass, Large [11, 18] | Plant response rating, Crabgrass, Large [11, 19] | Plant response rating, Corn (corn (Zea mays); [20]) | Plant response rating, Corn (corn (Zea mays); [22]) | Plant response rating, Corn (corn (Zea mays); [23]) | Plant response rating, Corn (corn (Zea mays); [25]) | Plant response rating, Corn (corn (Zea mays); [26]) | Plant response rating, Velvetleaf [15, 18]
100: Plant response rating, Horseweed [3, 20] | Plant response rating, Horseweed [3, 22] | Plant response rating, Ryegrass, Italian [6, 22] | Plant response rating, Beggarticks [7, 27] | Plant response rating, Beggarticks [7, 20] | Plant response rating, Beggarticks [7, 21] | Plant response rating, Beggarticks [7, 22] | Plant response rating, Lambsquarters [10, 16] | Plant response rating, Lambsquarters [10, 17]
75: Plant response rating, Sandbur [2, 22] | Plant response rating, Foxtail, Giant [4, 17] | Plant response rating, Ryegrass, Italian [6, 25] | Plant response rating, Field Bindweed [8, 27] | Plant response rating, Field Bindweed [8, 23] | Plant response rating, Crabgrass, Large [11, 17]
15: Plant response rating, Sandbur [2, 26] | Plant response rating, Corn (corn (Zea mays); [27])
20: Plant response rating, Field Bindweed [8, 25] | Plant response rating, Field Bindweed [8, 26] | Plant response rating, Corn (corn (Zea mays); [21]) | Plant response rating, Morningglory [12, 19]
60: Plant response rating, Arrowleaf Sida [5, 27] | Plant response rating, Arrowleaf Sida [5, 24] | Plant response rating, Morningglory [12, 17] | Plant response rating, Panicum, Fall [14, 24]
90: Plant response rating, Ryegrass, Italian [6, 26] | Plant response rating, Beggarticks [7, 24] | Plant response rating, Beggarticks [7, 25] | Plant response rating, Ragweed [13, 27] | Plant response rating, Panicum, Fall [14, 20]
35: Plant response rating, Foxtail, Giant [4, 16]
80: Plant response rating, Horseweed [3, 23] | Plant response rating, Ryegrass, Italian [6, 21] | Plant response rating, Beggarticks [7, 23] | Plant response rating, Beggarticks [7, 26] | Plant response rating, Field Bindweed [8, 24] | Plant response rating, Panicum, Fall [14, 21]
25: Plant response rating, Panicum, Fall [14, 25]
95: Plant response rating, Ryegrass, Italian [6, 20] | Plant response rating, Field Bindweed [8, 21] | Plant response rating, Ragweed [13, 20] | Plant response rating, Ragweed [13, 21] | Plant response rating, Velvetleaf [15, 17]
50: Plant response rating, Nightshade [1, 19] | Plant response rating, Sandbur [2, 21] | Plant response rating, Arrowleaf Sida [5, 22] | Plant response rating, Arrowleaf Sida [5, 23] | Plant response rating, Ryegrass, Italian [6, 24] | Plant response rating, Field Bindweed [8, 20] | Plant response rating, Crabgrass, Large [11, 16] | Plant response rating, Ragweed [13, 25] | Plant response rating, Velvetleaf [15, 19]
70: Plant response rating, Sandbur [2, 20] | Plant response rating, Arrowleaf Sida [5, 21] | Plant response rating, Ryegrass, Italian [6, 27] | Plant response rating, Field Bindweed [8, 22] | Plant response rating, Morningglory [12, 16] | Plant response rating, Ragweed [13, 23] | Plant response rating, Panicum, Fall [14, 27] | Plant response rating, Velvetleaf [15, 16]
65: Plant response rating, Ragweed [13, 26] | Plant response rating, Panicum, Fall [14, 26]
